Results from ChEMBL document CHEMBL4420069, “Targeting capn9/capns2 activity as a therapeutic strategy for the treatment of myofibroblast differentiation and associated pathologies” (2018).
Values belong to the compound of their own block, whether it stands above or below them. Activity calls are given as the source filed them. No cut-off for these calls is given here. Where a SMILES comes first, the peptide text is derived from it. The star is where a group is joined. Cbz = O=C(OCc1ccccc1)*; CH2F = FC*

Key:
[1] = target: Transient receptor potential cation channel subfamily M member 7 (Mus musculus) (UniProt Q923J1); settings: at 25 to 50 µM
Description: Inhibition of TRPM7 in mouse NMuMG cells assessed as suppression of TGFbeta1-induced EMT by measuring alpha-SMA expression at 25 to 50 uM incubated for 24 to 72 hrs by Western blot analysis

[2] = target: Transient receptor potential cation channel subfamily M member 7 (Mus musculus) (UniProt Q923J1); settings: at 25 to 50 µM; remark: listed apart in the source
Description: Inhibition of TRPM7 in mouse NMuMG cells assessed as suppression of TGFbeta1-induced calpain activity by measuring Filamin-A levels at 25 to 50 uM incubated for 24 to 72 hrs by Western blot analysis

[3] = target: Mothers against decapentaplegic homolog 2 (Mus musculus) (UniProt Q62432); settings: at 25 to 50 µM
Description: Inhibition of TGFbeta1-induced SMAD2 phosphorylation in mouse NMuMG cells at 25 to 50 uM incubated for 24 to 72 hrs

[4] = target: Mothers against decapentaplegic homolog 2 (Mus musculus) (UniProt Q62432); test: Inhibition of TGFbeta1-induced SMAD2 phosphorylation in mouse NMuMG cells at 25 to 50 uM incubated for 72 hrs; assay type: cell-based
[5] = target: Transient receptor potential cation channel subfamily M member 7 (Homo sapiens) (UniProt Q96QT4); test: Inhibition of TRPM7 in NHLF assessed as inhibition of TGFB1-induced FMT by measuring alpha-SMA expression at 25 to 50 uM incubated for 24 hrs by Western blot analysis
[6] = target: T1, Calpain-9 (Homo sapiens, UniProt O14815); test: Inhibition of human recombinant mini-CAPN9 pre-incubated for 10 mins before calpain FRET peptide 5-FAM /QXL520 substrate addition by FLIPR assay
T1 sequence (O14815 whole entry): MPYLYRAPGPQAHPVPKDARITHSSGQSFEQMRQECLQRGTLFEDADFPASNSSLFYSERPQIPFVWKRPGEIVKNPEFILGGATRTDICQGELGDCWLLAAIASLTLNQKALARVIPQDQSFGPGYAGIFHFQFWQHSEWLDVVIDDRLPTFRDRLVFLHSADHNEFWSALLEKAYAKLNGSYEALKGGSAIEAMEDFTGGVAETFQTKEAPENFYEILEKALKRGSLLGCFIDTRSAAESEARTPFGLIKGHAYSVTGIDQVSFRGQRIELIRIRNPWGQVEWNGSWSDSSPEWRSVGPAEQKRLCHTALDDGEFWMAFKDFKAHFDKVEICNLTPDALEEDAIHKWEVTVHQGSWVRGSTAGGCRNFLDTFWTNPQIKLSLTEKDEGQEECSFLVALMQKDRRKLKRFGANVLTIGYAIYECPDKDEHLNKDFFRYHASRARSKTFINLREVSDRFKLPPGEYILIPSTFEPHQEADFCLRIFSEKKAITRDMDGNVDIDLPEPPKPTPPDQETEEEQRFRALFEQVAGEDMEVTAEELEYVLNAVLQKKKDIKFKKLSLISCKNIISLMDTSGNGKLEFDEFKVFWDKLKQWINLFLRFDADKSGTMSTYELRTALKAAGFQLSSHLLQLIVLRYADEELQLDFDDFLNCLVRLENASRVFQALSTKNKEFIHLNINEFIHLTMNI

[7] = species: Mus musculus; test: Inhibition of TGFbeta receptor in mouse NMuMG cells assessed as suppression of TGFbeta1-induced calpain activity by measuring Filamin-A levels at 1 to 10 uM incubated for 24 to 72 hrs by Western blot analysis; assay type: cell-based
[8] = species: Mus musculus; test: Inhibition of TGFbeta receptor in mouse NMuMG cells assessed as suppression of TGFbeta1-induced SMAD2 phosphorylation at 1 to 10 uM incubated for 24 to 72 hrs by Western blot analysis; assay type: cell-based
[9] = species: Mus musculus; test: Inhibition of TGFbeta receptor in mouse NMuMG cells assessed as suppression of TGFbeta1-induced EMT by measuring alpha-SMA expression at 1 to 10 uM incubated for 24 to 72 hrs by Western blot analysis; assay type: cell-based
[10] = species: Mus musculus; test: Inhibition of calcineurin in mouse NMuMG cells assessed as suppression of TGFbeta1-induced EMT by measuring alpha-SMA expression at 0.25 to 0.75 uM incubated for 72 hrs by Western blot analysis; assay type: cell-based
[11] = species: Mus musculus; test: Inhibition of calpain in mouse NMuMG cells assessed as suppression of TGFbeta1-induced E-cadherin expression at 10 to 20 uM by immunofluorescence microscopy; assay type: cell-based
[12] = species: Mus musculus; test: Inhibition of calpain in mouse NMuMG cells assessed as suppression of TGFbeta1-induced EMT by measuring alpha-SMA expression at 10 to 20 uM incubated for 24 to 72 hrs by Western blot analysis; assay type: cell-based
[13] = species: Mus musculus; test: Inhibition of calpain in mouse NMuMG cells assessed as suppression of TGFbeta1-induced E-cadherin expression at 10 to 20 uM incubated for 48 to 72 hrs after 72 hrs pre-incubation with TGFbeta with continued presence of TGFbeta by immunofluorescence microscopy; assay type: cell-based
[14] = target: Calpain1/2 (Homo sapiens) (UniProt P17655+P07384); settings: 10 to 20 uM
Description: Inhibition of calpain in NHLF assessed as inhibition of TGFB1-induced FMT by measuring alpha-SMA expression at 10 to 20 uM incubated for 24 hrs by Western blot analysis

[15] = species: Mus musculus; test: Inhibition of calpain in mouse NMuMG cells assessed as suppression of TGFbeta1-induced EMT by measuring MMP9 expression at 10 to 20 uM incubated for 48 hrs; assay type: cell-based
[16] = test system: MDCK; test: Inhibition of calpain in MDCK cells assessed as suppression of TGFbeta1-induced EMT by measuring alpha-SMA expression at 10 to 20 uM incubated for 24 to 72 hrs by Western blot analysis; assay type: cell-based; settings: Canis lupus familiaris
[17] = target: Mothers against decapentaplegic homolog 2 (Mus musculus) (UniProt Q62432); test: Inhibition of TGFbeta1-induced SMAD2 phosphorylation in mouse NMuMG cells at 10 to 20 uM incubated for 24 to 72 hrs; assay type: cell-based
[18] = species: Mus musculus; test: Inhibition of calpain in mouse NMuMG cells assessed as suppression of TGFbeta1-induced EMT by measuring MMP2 expression at 10 to 20 uM incubated for 48 hrs; assay type: cell-based
[19] = species: Mus musculus; test: Inhibition of calpain in mouse NMuMG cells assessed as suppression of TGFbeta1-induced actin cytoskeleton reorganization at 10 to 20 uM incubated for 48 to 72 hrs after 72 hrs pre-incubation with TGFbeta with continued presence of TGFbeta; assay type: cell-based
[20] = species: Mus musculus; test: Inhibition of calpain in mouse NMuMG cells assessed as suppression of TGFbeta1-induced EMT by measuring alpha-SMA expression at 10 to 20 uM incubated for 48 to 72 hrs after 72 hrs pre-incubation with TGFbeta with continued presence of TGFbeta by Western blot analysis; assay type: cell-based
[21] = species: Mus musculus; test: Inhibition of calpain in mouse NMuMG cells assessed as suppression of TGFbeta1-induced EMT by measuring vimentin expression at 10 to 20 uM incubated for 48 hrs; assay type: cell-based
[22] = species: Mus musculus; test: Inhibition of calpain in mouse NMuMG cells assessed as suppression of TGFbeta1-induced actin cytoskeleton reorganization at 10 to 20 uM; assay type: cell-based
[23] = species: Mus musculus; test: Inhibition of calpain in mouse NMuMG cells assessed as suppression of TGFbeta1-induced EMT by measuring collagen 1A1 expression at 10 to 20 uM incubated for 48 hrs; assay type: cell-based
[24] = species: Mus musculus; test: Inhibition of calpain in mouse NMuMG cells assessed as suppression of TGFbeta1-induced EMT by measuring alpha-SMA expression at 25 to 50 uM incubated for 24 to 72 hrs by Western blot analysis; assay type: cell-based
[25] = species: Mus musculus; test: Inhibition of calpain in mouse NMuMG cells assessed as suppression of TGFbeta1-induced calpain activity by measuring Filamin-A levels at 25 to 50 uM incubated for 24 to 72 hrs by Western blot analysis; assay type: cell-based

Mothers against decapentaplegic homolog 2 (Mus musculus), sequence (Q62432 whole entry): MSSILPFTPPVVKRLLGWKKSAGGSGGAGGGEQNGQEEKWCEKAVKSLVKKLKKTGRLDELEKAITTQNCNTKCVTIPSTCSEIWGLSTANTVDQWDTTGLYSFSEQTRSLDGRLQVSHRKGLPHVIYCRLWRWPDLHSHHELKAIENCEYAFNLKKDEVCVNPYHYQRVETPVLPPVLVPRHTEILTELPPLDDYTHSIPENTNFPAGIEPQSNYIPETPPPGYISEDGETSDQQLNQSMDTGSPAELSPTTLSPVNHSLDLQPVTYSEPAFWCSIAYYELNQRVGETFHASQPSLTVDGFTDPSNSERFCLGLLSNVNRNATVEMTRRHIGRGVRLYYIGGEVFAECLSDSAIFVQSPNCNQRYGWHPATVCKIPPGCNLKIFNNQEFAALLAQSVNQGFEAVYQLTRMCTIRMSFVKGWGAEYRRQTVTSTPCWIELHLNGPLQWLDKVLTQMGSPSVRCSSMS
Transient receptor potential cation channel subfamily M member 7 (Mus musculus), sequence (Q923J1 whole entry): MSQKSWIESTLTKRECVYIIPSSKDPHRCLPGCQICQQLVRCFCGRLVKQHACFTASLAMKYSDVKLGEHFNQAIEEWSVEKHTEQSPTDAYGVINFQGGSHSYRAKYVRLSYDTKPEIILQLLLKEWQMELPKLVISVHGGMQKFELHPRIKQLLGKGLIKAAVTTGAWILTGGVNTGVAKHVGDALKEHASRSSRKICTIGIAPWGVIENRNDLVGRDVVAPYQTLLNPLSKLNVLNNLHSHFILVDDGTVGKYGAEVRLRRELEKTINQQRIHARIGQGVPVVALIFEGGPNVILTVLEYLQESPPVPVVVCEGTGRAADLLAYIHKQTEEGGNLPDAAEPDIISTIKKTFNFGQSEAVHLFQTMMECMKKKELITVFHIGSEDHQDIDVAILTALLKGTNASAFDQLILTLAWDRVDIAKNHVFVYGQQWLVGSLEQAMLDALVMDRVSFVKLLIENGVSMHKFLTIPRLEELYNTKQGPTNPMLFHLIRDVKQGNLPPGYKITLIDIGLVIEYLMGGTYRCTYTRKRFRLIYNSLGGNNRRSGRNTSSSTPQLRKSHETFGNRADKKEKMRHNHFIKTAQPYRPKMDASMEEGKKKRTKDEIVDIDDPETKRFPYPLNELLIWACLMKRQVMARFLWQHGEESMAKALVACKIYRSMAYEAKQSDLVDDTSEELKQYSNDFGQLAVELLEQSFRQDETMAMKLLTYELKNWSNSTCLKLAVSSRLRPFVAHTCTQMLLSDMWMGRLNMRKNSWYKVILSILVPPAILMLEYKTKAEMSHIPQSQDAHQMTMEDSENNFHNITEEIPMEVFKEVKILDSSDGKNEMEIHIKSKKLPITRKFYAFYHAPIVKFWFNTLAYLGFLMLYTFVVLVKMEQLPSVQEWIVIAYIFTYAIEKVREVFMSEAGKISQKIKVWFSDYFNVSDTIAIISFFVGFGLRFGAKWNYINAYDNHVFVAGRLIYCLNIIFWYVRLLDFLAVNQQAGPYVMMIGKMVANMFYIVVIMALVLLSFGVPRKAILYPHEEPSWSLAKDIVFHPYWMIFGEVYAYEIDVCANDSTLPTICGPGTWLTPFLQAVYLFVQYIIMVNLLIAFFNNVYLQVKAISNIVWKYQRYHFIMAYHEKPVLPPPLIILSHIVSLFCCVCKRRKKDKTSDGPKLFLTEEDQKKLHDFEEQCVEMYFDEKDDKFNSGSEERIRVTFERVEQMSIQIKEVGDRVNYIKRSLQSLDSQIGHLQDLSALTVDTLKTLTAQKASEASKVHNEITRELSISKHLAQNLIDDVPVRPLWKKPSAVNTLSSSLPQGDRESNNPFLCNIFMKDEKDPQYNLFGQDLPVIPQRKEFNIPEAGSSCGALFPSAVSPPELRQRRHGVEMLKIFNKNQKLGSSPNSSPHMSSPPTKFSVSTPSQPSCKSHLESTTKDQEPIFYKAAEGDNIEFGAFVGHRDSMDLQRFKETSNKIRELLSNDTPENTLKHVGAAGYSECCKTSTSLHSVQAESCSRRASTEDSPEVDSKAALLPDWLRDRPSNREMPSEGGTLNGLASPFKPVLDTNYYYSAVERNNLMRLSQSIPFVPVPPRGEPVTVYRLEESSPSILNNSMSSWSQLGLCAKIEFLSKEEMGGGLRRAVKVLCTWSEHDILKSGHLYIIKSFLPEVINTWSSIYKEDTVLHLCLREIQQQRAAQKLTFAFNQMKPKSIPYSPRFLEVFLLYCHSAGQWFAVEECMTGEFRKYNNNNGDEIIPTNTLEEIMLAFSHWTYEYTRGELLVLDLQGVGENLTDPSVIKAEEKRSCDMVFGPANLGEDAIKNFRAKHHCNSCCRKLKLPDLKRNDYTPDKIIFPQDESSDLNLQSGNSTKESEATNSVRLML
Transient receptor potential cation channel subfamily M member 7 (Homo sapiens), sequence (Q96QT4 whole entry): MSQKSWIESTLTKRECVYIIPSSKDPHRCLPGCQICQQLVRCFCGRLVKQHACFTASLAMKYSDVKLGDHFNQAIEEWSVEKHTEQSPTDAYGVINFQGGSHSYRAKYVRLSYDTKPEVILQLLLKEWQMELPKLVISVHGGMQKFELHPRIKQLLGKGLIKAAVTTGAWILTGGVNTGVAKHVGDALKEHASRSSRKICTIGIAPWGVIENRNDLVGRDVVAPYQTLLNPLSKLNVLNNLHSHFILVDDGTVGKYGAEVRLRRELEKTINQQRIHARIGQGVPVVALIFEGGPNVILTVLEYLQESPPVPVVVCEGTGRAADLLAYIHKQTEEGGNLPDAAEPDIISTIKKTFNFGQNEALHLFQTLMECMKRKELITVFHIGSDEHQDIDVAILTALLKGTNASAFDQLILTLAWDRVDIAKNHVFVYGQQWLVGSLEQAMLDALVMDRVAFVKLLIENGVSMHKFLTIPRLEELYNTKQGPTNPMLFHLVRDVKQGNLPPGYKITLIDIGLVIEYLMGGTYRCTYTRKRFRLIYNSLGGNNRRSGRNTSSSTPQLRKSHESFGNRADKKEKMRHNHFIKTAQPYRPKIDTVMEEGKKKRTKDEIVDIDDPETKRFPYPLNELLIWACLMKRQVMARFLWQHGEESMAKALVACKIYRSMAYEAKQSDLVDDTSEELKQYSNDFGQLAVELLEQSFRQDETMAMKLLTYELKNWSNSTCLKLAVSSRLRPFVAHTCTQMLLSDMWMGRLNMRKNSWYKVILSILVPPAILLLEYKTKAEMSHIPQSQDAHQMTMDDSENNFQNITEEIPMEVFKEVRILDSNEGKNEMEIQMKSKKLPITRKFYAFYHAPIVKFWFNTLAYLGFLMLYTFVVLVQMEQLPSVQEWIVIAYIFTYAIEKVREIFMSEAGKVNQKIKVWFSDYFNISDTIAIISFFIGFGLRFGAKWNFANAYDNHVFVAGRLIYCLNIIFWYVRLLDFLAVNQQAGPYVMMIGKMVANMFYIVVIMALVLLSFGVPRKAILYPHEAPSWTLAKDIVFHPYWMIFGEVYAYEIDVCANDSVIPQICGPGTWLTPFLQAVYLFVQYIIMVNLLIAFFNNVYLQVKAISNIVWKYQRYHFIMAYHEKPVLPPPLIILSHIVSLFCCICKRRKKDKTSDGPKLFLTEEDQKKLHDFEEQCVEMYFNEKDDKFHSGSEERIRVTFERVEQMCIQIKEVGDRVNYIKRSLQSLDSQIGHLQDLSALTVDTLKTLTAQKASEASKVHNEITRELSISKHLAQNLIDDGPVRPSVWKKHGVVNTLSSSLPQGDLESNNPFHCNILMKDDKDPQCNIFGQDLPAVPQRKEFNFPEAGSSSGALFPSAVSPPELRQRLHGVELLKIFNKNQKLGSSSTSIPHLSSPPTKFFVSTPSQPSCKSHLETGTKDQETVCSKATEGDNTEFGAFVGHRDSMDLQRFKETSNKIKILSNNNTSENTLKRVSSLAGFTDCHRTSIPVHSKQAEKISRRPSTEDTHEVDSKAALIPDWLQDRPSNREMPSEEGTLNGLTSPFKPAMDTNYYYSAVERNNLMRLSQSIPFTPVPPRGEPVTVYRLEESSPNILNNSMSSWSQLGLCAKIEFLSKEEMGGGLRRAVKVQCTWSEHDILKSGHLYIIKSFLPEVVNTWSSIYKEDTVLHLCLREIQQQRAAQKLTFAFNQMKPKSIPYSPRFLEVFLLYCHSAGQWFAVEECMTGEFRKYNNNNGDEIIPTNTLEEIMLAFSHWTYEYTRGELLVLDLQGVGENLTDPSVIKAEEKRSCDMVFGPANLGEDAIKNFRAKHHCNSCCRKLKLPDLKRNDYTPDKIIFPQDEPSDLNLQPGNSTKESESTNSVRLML

SMILES: NCCOB(c1ccccc1)c1ccccc1
- inhibition [1]: Active
- inhibition [2]: Active
- inhibition [3]: inactive

SMILES: c1ccc2c(c1)CCC[C@H]2Nc1nc2ccccc2[nH]1
- inhibition [1]: Active
- inhibition [2]: Active
- inhibition [4]: inactive
- inhibition [5]: Active

SMILES: NC(=O)c1ccc(-c2nc(-c3ccccn3)c(-c3ccc4c(c3)OCO4)[nH]2)cc1
- inhibition [7]: Active
- inhibition [8]: Active
- inhibition [9]: Active

SMILES: C=CC[C@@H]1/C=C(\C)C[C@H](C)C[C@H](OC)[C@H]2O[C@@](O)(C(=O)C(=O)N3CCCC[C@H]3C(=O)O[C@H](/C(C)=C/[C@@H]3CC[C@@H](O)[C@H](OC)C3)[C@H](C)[C@@H](O)CC1=O)[C@H](C)C[C@@H]2OC
- inhibition [10]: Active

Continued, in another order:

- IC50 [6]: 100 µM
SMILES: C[C@H](NC(=O)[C@H](Cc1ccccc1)NC(=O)OCc1ccccc1)C(=O)CF

- IC50 [6]: 100 µM
SMILES: COC(=O)C[C@H](NC(=O)[C@H](C)NC(=O)[C@@H](NC(=O)OCc1ccccc1)C(C)C)C(=O)CF (Cbz-Val-Ala-Asp(OMe)-CH2F)

- inhibition [14]: Active
- inhibition [17]: inactive
SMILES: CC(C)[C@H](NC(=O)OCc1ccccc1)C(=O)N[C@H](C=O)Cc1ccccc1 (Cbz-Val-Phe-aldehyde)
- inhibition [11]: Active
- inhibition [12]: Active
- inhibition [13]: Active
- inhibition [15]: Active
- inhibition [16]: Active
- inhibition [18]: Active
- inhibition [19]: Active
- inhibition [20]: Active
- inhibition [21]: Active
- inhibition [22]: Active
- inhibition [23]: Active

- inhibition [3]: inactive
SMILES: CCCC[C@@H](C=O)NC(=O)[C@H](CC(C)C)NC(=O)OCc1ccccc1
- inhibition [24]: Active
- inhibition [25]: Active
